Measured values published in patent US20140106015A1, “COMPOSITION CONTAINING HEAT-TREATED POWDER OR EXTRACT OF GLYCINE SOJA AS ACTIVE GRADIENT FOR PREVENTION AND TREATMENT OF DIABETES MELLITUS AND DIABETIC COMPLICATIONS” (KOC BIOTEC CO LTD, priority 2011, published 2014).

Key:
Assay type in all cases: in vivo, mouse
[1] = tested on: BKS.Cg-m+/+ Leprdb/J homozygous diabetic (db/db) mice; test: Experimental Example 5: efficacy comparison with anthocyanins, pinitol, banaba/Cr complex in db/db mice
Description: “Pinitol”: Product containing 95% or more of pinitol (Sigma-Aldrich) “Banaba/Cr complex”: Wellness Banaba Gold ChromeTM (containing 400 mg/g banaba leaf extract, 200 mg/g indigestible maltodextrin and 0.1 mg/g chromium) Male db/db mice, aged 3 weeks, were acclimatized to an animal breeding room for 1 week. 4 mice were assigned to each experimental group. […] All animals were fasted for 6 h from 9 a.m. to 3 p.m. every Wednesday. Blood samples were collected from the mouse tail vein and blood glucose levels were measured using a portable blood glucose meter (OneTOUCH@Ultra, Johnson & Johnson, USA). […] The following are a total of 8 experimental groups used. Classification of Experimental Groups • NC: […] After the drug (test material) was administered to each experimental group for 6 weeks, abdominal, epididymal, and inguinal adipose tissues were excised from each experimental animal. The total weight of the adipose tissues was measured. […] For the autopsy, each animal was fasted for 12 h. […] After plasma was separated, the levels of total cholesterol, high-density lipoprotein (HDL) cholesterol, low-density lipoprotein (LDL) cholesterol, triglyceride, BUN, and phospholipid in the plasma were measured using an automatic biochemical analyzer (Hitachi-720, Hitachi Medical, Japan). […] The levels of glucose and insulin in the serum were analyzed. Plasma was obtained as a sample in the same manner. The plasma insulin level was measured using a Mouse Insulin ELISA kit (Shibayagi, Japan) and an ELISA reader (Labsystems, Finland). Data obtained from the above experiments were expressed as mean±standard error and significance assay was determined using Student's T-test.

db/db mice [2] = test: Experimental Example 2: glycine soja streamed powder versus metformin in db/db mice, 6 weeks oral; conditions: age of 10 weeks
Description: The glycine soja streamed powder (DC) was diluted with physiological saline and the dilution was orally administered in divided portions (each 0.2 ml) at 10 a.m. and 4 p.m. daily using a mouse sonde (2 g/kg/day). Metformin (1,1-dimethylbiguanide), which is a widely used hypoglycemic agent, was chosen as positive control. Metformin was dissolved in 0.25% carboxymethylcellulose (CMC) and administered orally in two divided portions (each 0.2 ml) in the same manner (150 mg/kg/day). The same amount of physiological saline as negative control was administered in the same manner. A general bean streamed powder was used as another comparative test group. The bean streamed powder was obtained in the same manner as in Example 1, except that bean was used instead of glycine soja. The bean streamed powder was administered orally twice a day in the same amount and manner as the glycine soja streamed powder (DC).
Male db/db mice, aged 3 weeks, were acclimatized to an animal breeding room for 1 week. 6 mice were assigned to each experimental group. The blood glucose levels of the animals were measured from the age of 4 weeks at intervals of 1 week for a total of 6 weeks. Drug was administered orally in divided portions (each 0.2 ml) at 10 a.m. and 4 p.m. daily using a mouse sonde. All animals were fasted for 6 h from 9 a.m. to 3 p.m. every Wednesday. Blood samples were collected from the mouse tail vein and blood glucose levels were measured using a portable blood glucose meter (OneTOUCH@Ultra. Johnson & Johnson, USA). Since serum for final biochemical analysis requires blood sampling after fasting for at least 12 h, blood glucose levels were measured at the final 8th week. 2 days after the measurement, an autopsy was conducted. For the autopsy, all animals were fasted for 12 h. Blood samples were drawn from the heart under ether anesthesia, put in tubes for serum separation, and centrifuged at 3000 rpm for 20 min to obtain serum samples, which were used as samples for the analysis of biochemical indices.
Experimental Group Classification • Control (db/db mice) (n=6) • Positive control (Metformin, 150 mg/kg/day, o.p) (n=6) • Glycine soja streamed powder (DC) (2.0 g/kg/day, o.p) (n=6) • Bean powder (2.0 g/kg/day, o.p) (n=6)
After a test material was administered to each experimental group for 6 weeks, blood glucose level was measured at the final 8th week. 2 days after the measurement, an autopsy was conducted. For the autopsy, each animal was fasted for 12 h. Blood was drawn from the heart under ether anesthesia, put in a tube for serum separation, and centrifuged at 3000 rpm for 20 min to obtain serum, which was used as a sample for the analysis of biochemical indices. The glucose and insulin levels of the serum were analyzed. Changes in the insulin level and insulin resistance index (HOMAIR) of each experimental group during administration for 8 weeks period were calculated by the following formulae. Plasma was obtained as a sample in the same manner. The level of insulin in the plasma was measured using a Mouse Insulin ELISA kit (Shibayagi, Japan) and an ELISA reader (Labsystems, Finland).
After a test material was administered to each experimental group for 6 weeks, abdominal, epididymal, and inguinal adipose tissues were excised from each experimental animal. The total weight of the adipose tissues was measured.
Blood was obtained in the same manner as in 1-3, put in a tube for serum separation, and centrifuged at 3000 rpm for 20 min to obtain serum, which was used as a sample for the analysis of biochemical indices. Total cholesterol, high-density lipoprotein (HDL) cholesterol, low-density lipoprotein (LDL) cholesterol, triglyceride, and phospholipid levels, which are indices of lipid contents in plasma and liver, in the plasma were measured using an automatic biochemical analyzer (Hitachi-720, Hitachi Medical, Japan). […]

db/db mice [3] = test: as above; conditions: age of 10 weeks, fasted about 16 h, DC and bean powder 2 g/kg/day, metformin 150 mg/kg/day
[4] = db/db mice, 100 mg/kg/day, BANABA 300 mg/kg/day
[5] = DC and bean powder 2 g/kg/day, metformin 150 mg/kg/day
[6] = metformin 150 mg/kg/day, bean powder 2 g/kg/day

`CO[C@H]1[C@H](O)[C@@H](O)[C@@H](O)[C@H](O)[C@@H]1O` [Pinitol, pinitol] was tested. Which “serum BUN level higher than non-treated group” value ([1]; No. 4 mouse of the Pinitol-administered group) did it give?
Its value is no less than 3 times.

What about the “serum BUN level” value ([1]; No. 4 mouse of the Pinitol-administered group, 100 mg/kg/day, NC 30.2 mg/dL) of the same molecule?
The value was 92.8 mg/dL.

And the blood glucose level ([1]; db/db mice, 9th week, tail vein, fasted 6 h, oral 6 weeks, 100 mg/kg/day, BANABA 300 mg/kg/day)?
The blood glucose level was 231.8 mg/dL.

What about the “blood glucose level lower than NC (hypoglycemic efficacy)” value ([1]; db/db mice, 9th week, 100 mg/kg/day, BANABA 300 mg/kg/day) of the same molecule?
Its value is 52.1%.

And the “daily food intake compared with non-treated group” value ([1]; db/db mice, after completion of the tests)?
Its value is “smaller”.

What about the “serum low-density lipoprotein cholesterol level compared with non-treated group” value ([1]; db/db mice, age of 9 weeks) of the same molecule?
The value was “not substantially different”.

And the serum insulin level ([1]; db/db mice, age of 9 weeks, 100 mg/kg/day, BANABA 300 mg/kg/day)?
The serum insulin level was 6.6 ng/mL.

What about the “serum insulin level lower than NC (suppressive efficacy on insulin resistance)” value ([1]; db/db mice, age of 9 weeks, NC 10.2 ng/ml) of the same molecule?
Its value is 35.3%.

And the “serum triglyceride (TG) level relative to non-treated group (NC)” value ([1]; db/db mice, age of 9 weeks, NC 22 mg/dL)?
The value was “approximately twice”.

And the “serum total cholesterol level compared with non-treated group” value ([1]; db/db mice, age of 9 weeks, NC 168.3 mg/dL)?
The value was “not substantially different”.

What about the “adipose tissue weight lower than non-treated group (NC)” value ([1]; db/db mice, age of 10 weeks) of the same molecule?
Its value is “about 5.4%”.

What about the “liver tissue weight compared with NC” value ([1]; db/db mice, age of 10 weeks) of the same molecule?
Its value is “not substantially different”.

What about the “liver tissue weight lower than non-treated group (NC)” value ([1]; db/db mice, age of 10 weeks, p<0.05) of the same molecule?
The value was “about 7.0%”.

And the “food efficiency ratio compared with non-treated group” value ([1]; db/db mice, for 5 weeks)?
The value was “similar”.

What about the “Food efficiency ratio (PER, %)” value ([1]; db/db mice, for 5 weeks, calculated from food intakes and body weight gains) of the same molecule?
Its value is 11.9 ± 1.28%.

What about the Body weight gain [1, 4] of the same molecule?
Its Body weight gain is 0.500 ± 0.05 g/day.

What about the Food intake [1, 4] of the same molecule?
Its Food intake is 4.20 g/day.

Which “serum high-density lipoprotein cholesterol level compared with non-administered group” value (db/db mice [2]) does the source give for `CN(C)C(=N)NC(=N)N` [metformin, 1,1-dimethylbiguanide] here?
Its value is “no significant differences”.

And the “serum triglyceride level lower than non-administered group (NC)” value (db/db mice [2]; DC 2 g/kg/day, metformin 150 mg/kg/day)?
The value was 38.8%.

What about the “serum ALT level” value (db/db mice [2]; [5]) of the same molecule?
The value was 54.9 U/L.

And the “serum AST level” value (db/db mice [2]; [5])?
The value was 120.0 U/L.

And the “serum glucose level lower than non-administered group” value (db/db mice [2]; [5])?
Its value is 34.6%.

And the “serum triglyceride (TG) level” value (db/db mice [2]; [5])?
The value was 78.8 mg/dL.

What about the “serum total cholesterol level compared with non-administered group” value (db/db mice [2]; metformin 150 mg/kg/day) of the same molecule?
The value was “low compared to that of the non-administered group, but there was no statistical significance”.

And the “serum insulin level compared with non-administered group” value (db/db mice [2]; [6])?
The value was “slightly lower than the serum insulin level of the non-administered group, but there were no statistical significances”.

And the “serum low-density lipoprotein cholesterol level compared with non-administered group” value (db/db mice [2]; [6])?
The value was “low compared to the low-density lipoprotein cholesterol level of the non-administered group, but there were no statistical significances”.

And the “blood glucose level lower than non-administered group (NC)” value (db/db mice [2]; oral 6 weeks, DC and bean powder 2 g/kg/day, metformin 150 mg/kg/day)?
The value was 34.6%.

And the serum glucose level (db/db mice [3])?
Its serum glucose level is 376.0 mg/dL.
